From PubChem BioAssay AID1963847 (Molecular Pharmacology Branch, DTP, NCI, 2024)
pIC50: −log10 of the molar value.

System: 415267-285-R-J2-PDC complex spheroid viability
Experiment: Anticancer human tumor 415267-285-R-J2-PDC patient-derived breast carcinoma cell line growth inhibition [POLQ]
Conditions: for pIC50: curve of first compound; for viability, T/C: stronger effect = lower value
Summary of the method: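 Three-cell-type spheroids modelling solid tumor plus stroma served as the readout system; POL inhibitors were tested individually and in combination, concentration ranges set by clinical Cmax where known.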

[1] = second compound 0.0316 µM, first compound 0.000316 µM
[2] = second compound 0.0316 µM, first compound 0.001 µM
[3] = second compound 0.0316 µM, first compound 0.00316 µM
[4] = second compound 0.0316 µM, first compound 0.01 µM
[5] = second compound 0.0316 µM, first compound 0.0316 µM
[6] = second compound 0.0316 µM, first compound 0.1 µM
[7] = second compound 0.1 µM, first compound 0.000316 µM
[8] = second compound 0.1 µM, first compound 0.001 µM
[9] = second compound 0.1 µM, first compound 0.00316 µM
[10] = second compound 0.1 µM, first compound 0.01 µM
[11] = second compound 0.1 µM, first compound 0.0316 µM
[12] = second compound 0.1 µM, first compound 0.1 µM
[13] = second compound 0.316 µM, first compound 0.000316 µM
[14] = second compound 0.316 µM, first compound 0.001 µM
[15] = second compound 0.316 µM, first compound 0.00316 µM
[16] = second compound 0.316 µM, first compound 0.01 µM
[17] = second compound 0.316 µM, first compound 0.0316 µM
[18] = second compound 0.316 µM, first compound 0.1 µM
[19] = second compound 1 µM, first compound 0.000316 µM
[20] = second compound 1 µM, first compound 0.001 µM
[21] = second compound 1 µM, first compound 0.00316 µM
[22] = second compound 1 µM, first compound 0.01 µM
[23] = second compound 1 µM, first compound 0.0316 µM
[24] = second compound 1 µM, first compound 0.1 µM
[25] = second compound 3.16 µM, first compound 0.000316 µM
[26] = second compound 3.16 µM, first compound 0.001 µM
[27] = second compound 3.16 µM, first compound 0.00316 µM
[28] = second compound 3.16 µM, first compound 0.01 µM
[29] = second compound 3.16 µM, first compound 0.0316 µM
[30] = second compound 3.16 µM, first compound 0.1 µM
[31] = second compound 10 µM, first compound 0.000316 µM
[32] = second compound 10 µM, first compound 0.001 µM
[33] = second compound 10 µM, first compound 0.00316 µM
[34] = second compound 10 µM, first compound 0.01 µM
[35] = second compound 10 µM, first compound 0.0316 µM
[36] = second compound 10 µM, first compound 0.1 µM
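Further: spheroids exposed to compounds for one week before readout.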
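Wherever viability, T/C is given: luminescence used as stand-in measure of viable cells; 100% = DMSO vehicle control viability.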

Cn1ncnc1[C@H]1c2n[nH]c(=O)c3cc(F)cc(c23)N[C@@H]1c1ccc(F)cc1 + COC1C(OC(N)=O)C(O)C(Oc2ccc3c(O)c(NC(=O)c4ccc(O)c(CC=C(C)C)c4)c(=O)oc3c2C)OC1(C)C
pIC50 (second compound 0.0316 µM): < 7.00 | pIC50 (second compound 0.1 µM): < 7.00 | pIC50 (second compound 0.316 µM): < 7.00 | pIC50 (second compound 1 µM): < 7.00 | pIC50 (second compound 3.16 µM): < 7.00 | pIC50 (second compound 10 µM): < 7.00 | viability, T/C [1]: 102% | viability, T/C [2]: 98.6% | viability, T/C [3]: 113% | viability, T/C [4]: 101% | viability, T/C [5]: 107% | viability, T/C [6]: 93% | viability, T/C [7]: 105% | viability, T/C [8]: 99.3% | viability, T/C [9]: 101% | viability, T/C [10]: 103% | viability, T/C [11]: 97.8% | viability, T/C [12]: 106% | viability, T/C [13]: 112% | viability, T/C [14]: 99.6% | viability, T/C [15]: 94.2% | viability, T/C [16]: 106% | viability, T/C [17]: 107% | viability, T/C [18]: 104% | viability, T/C [19]: 97.6% | viability, T/C [20]: 93.3% | viability, T/C [21]: 94.8% | viability, T/C [22]: 97.9% | viability, T/C [23]: 109% | viability, T/C [24]: 105% | viability, T/C [25]: 89.6% | viability, T/C [26]: 92.9% | viability, T/C [27]: 95.4% | viability, T/C [28]: 105% | viability, T/C [29]: 109% | viability, T/C [30]: 103% | viability, T/C [31]: 105% | viability, T/C [32]: 101% | viability, T/C [33]: 101% | viability, T/C [34]: 96.3% | viability, T/C [35]: 102% | viability, T/C [36]: 96.1%

CCc1c2c(nc3ccc(O)cc13)-c1cc3c(c(=O)n1C2)COC(=O)[C@]3(O)CC + COC1C(OC(N)=O)C(O)C(Oc2ccc3c(O)c(NC(=O)c4ccc(O)c(CC=C(C)C)c4)c(=O)oc3c2C)OC1(C)C
pIC50 (second compound 0.0316 µM): > 8.50 | pIC50 (second compound 0.1 µM): > 8.50 | pIC50 (second compound 0.316 µM): > 8.50 | pIC50 (second compound 1 µM): > 8.50 | pIC50 (second compound 3.16 µM): > 8.50 | pIC50 (second compound 10 µM): > 8.50 | viability, T/C [3]: 32.7% | viability, T/C [4]: 10% | viability, T/C [5]: 6.54% | viability, T/C [6]: 4.82% | viability, T/C (second compound 0.0316 µM, first compound 0.316 µM): 3.41% | viability, T/C (second compound 0.0316 µM, first compound 1 µM): 1.27% | viability, T/C [9]: 38.3% | viability, T/C [10]: 11% | viability, T/C [11]: 7.02% | viability, T/C [12]: 5.02% | viability, T/C (second compound 0.1 µM, first compound 0.316 µM): 3.21% | viability, T/C (second compound 0.1 µM, first compound 1 µM): 1.32% | viability, T/C [15]: 36.5% | viability, T/C [16]: 11% | viability, T/C [17]: 9.37% | viability, T/C [18]: 4.84% | viability, T/C (second compound 0.316 µM, first compound 0.316 µM): 5.41% | viability, T/C (second compound 0.316 µM, first compound 1 µM): 1.19% | viability, T/C [21]: 43.8% | viability, T/C [22]: 9.67% | viability, T/C [23]: 7.66% | viability, T/C [24]: 4.1% | viability, T/C (second compound 1 µM, first compound 0.316 µM): 4.05% | viability, T/C (second compound 1 µM, first compound 1 µM): 1.96% | viability, T/C [27]: 39.8% | viability, T/C [28]: 9.67% | viability, T/C [29]: 6.74% | viability, T/C [30]: 4.81% | viability, T/C (second compound 3.16 µM, first compound 0.316 µM): 3.35% | viability, T/C (second compound 3.16 µM, first compound 1 µM): 1.51% | viability, T/C [33]: 40.3% | viability, T/C [34]: 10.1% | viability, T/C [35]: 7.22% | viability, T/C [36]: 4.24% | viability, T/C (second compound 10 µM, first compound 0.316 µM): 3.48% | viability, T/C (second compound 10 µM, first compound 1 µM): 1.63%

CC[C@@]1(O)C(=O)OCc2c1cc1n(c2=O)Cc2cc3c(CN(C)C)c(O)ccc3nc2-1 + Cc1cccc(N(C)C(=O)C2C(O)CCN2c2nc(C)cc(C(F)(F)F)c2C#N)c1
pIC50 (second compound 0.0316 µM): 7.70 | pIC50 (second compound 0.1 µM): 7.73 | pIC50 (second compound 0.316 µM): 7.69 | pIC50 (second compound 1 µM): 7.72 | pIC50 (second compound 3.16 µM): 7.73 | pIC50 (second compound 10 µM): 7.74 | viability, T/C [1]: 90.7% | viability, T/C [2]: 102% | viability, T/C [3]: 103% | viability, T/C [4]: 90.9% | viability, T/C [5]: 22% | viability, T/C [6]: 7.7% | viability, T/C [7]: 96.9% | viability, T/C [8]: 96.9% | viability, T/C [9]: 101% | viability, T/C [10]: 86.5% | viability, T/C [11]: 19.9% | viability, T/C [12]: 7.92% | viability, T/C [13]: 102% | viability, T/C [14]: 98% | viability, T/C [15]: 102% | viability, T/C [16]: 104% | viability, T/C [17]: 19.2% | viability, T/C [18]: 9.41% | viability, T/C [19]: 101% | viability, T/C [20]: 96.4% | viability, T/C [21]: 107% | viability, T/C [22]: 89.5% | viability, T/C [23]: 18.1% | viability, T/C [24]: 7.15% | viability, T/C [25]: 98.5% | viability, T/C [26]: 102% | viability, T/C [27]: 92% | viability, T/C [28]: 91.7% | viability, T/C [29]: 13.8% | viability, T/C [30]: 8.04% | viability, T/C [31]: 108% | viability, T/C [32]: 96.2% | viability, T/C [33]: 104% | viability, T/C [34]: 85.6% | viability, T/C [35]: 17.1% | viability, T/C [36]: 9.1%
